Assay results as given in US11400058B2, “Intravenous formulations of coenzyme Q10 (CoQ10) and methods of use thereof” (Berg LLC, priority 2010, dated 2022).
Marks after values point to notes of the source that are not given here.

Test: 4-week repeat-dose toxicology study in rats with 2-week recovery (Study 20000328)
Conditions: for Died or Sacrificed Moribund: animals of 15
[1] = 62.5 mg/kg F, end of dosing, animals of 10
[2] = 62.5 mg/kg F, end of recovery, animals of 5
[3] = 62.5 mg/kg M, end of dosing, animals of 10

COC1=C(OC)C(=O)C(C/C=C(\C)CC/C=C(\C)CC/C=C(\C)CC/C=C(\C)CC/C=C(\C)CC/C=C(\C)CC/C=C(\C)CC/C=C(\C)CC/C=C(\C)CCC=C(C)C)=C(C)C1=O [CoQ10, Coenzyme Q10]
2: Lymph Node, Mes. Histiocytic Infiltration, Mild [1] | Gross Pathology: Pale Iliac Lymph Node [2] | Liver Histiocytic Infiltration, Mild [2] | Liver Vacuolation, Mild [2] | Liver Vacuolation, Minimal [2] | Lymph Node, Man. Histiocytic Infiltration [2] | Lymph Node, Man. Histiocytic Infiltration, Minimal [2] | Spleen Histiocytic Infiltration, Minimal [2] | Liver Histiocytic Infiltration [3] | Liver Vacuolation [3] | Liver Vacuolation, Minimal [3]
15.1 s: APPT (62.5 mg/kg F, end of dosing)
83 IU/L: AST (62.5 mg/kg F, end of recovery)
19 IU/L: ALT (62.5 mg/kg F, end of dosing) | ALT (62.5 mg/kg F, end of recovery)
44.3%: Hematocrit (62.5 mg/kg M, end of dosing)
−1.7%: Body Weight, percent difference from controls (62.5 mg/kg F, end of dosing)
14.4 s: APPT (62.5 mg/kg F, end of recovery)
0.00 IU/L: GGT (62.5 mg/kg M, end of dosing)
15.1* g/dL: Hemoglobin (62.5 mg/kg M, end of dosing)
−57.3* %: Spleen weight (absolute), percent difference from controls (62.5 mg/kg M, end of dosing)
8.14* 10^6/cmm: Erythrocytes (62.5 mg/kg M, end of dosing)
−7.9%: Food Consumption, percent difference from controls (62.5 mg/kg F, end of recovery)
5: Liver Histiocytic Infiltration [2] | Liver Vacuolation [2] | Lymph Node, Mes. Histiocytic Infiltration, Minimal [3]
0.12 IU/L: GGT (62.5 mg/kg F, end of recovery)
8.56* 10^3/cmm: Leukocytes (62.5 mg/kg M, end of dosing)
0.42 IU/L: GGT (62.5 mg/kg F, end of dosing)
−48.2* %: Spleen weight (absolute), percent difference from controls (62.5 mg/kg F, end of dosing)
−6.1%: Liver weight (absolute), percent difference from controls (62.5 mg/kg F, end of dosing)
8.33 10^3/cmm: Leukocytes (62.5 mg/kg F, end of dosing)
+2.5%: Food Consumption, percent difference from controls (62.5 mg/kg M, end of dosing)
9: Lymph Node, Mes. Histiocytic Infiltration [1] | Gross Pathology: Pale Liver [3] | Lymph Node, Mes. Histiocytic Infiltration [3]
0: Died or Sacrificed Moribund (62.5 mg/kg F) | Bone Marrow, Sternum Hyperplasia [1] | Bone Marrow, Sternum Hyperplasia, Mild [1] | Bone Marrow, Sternum Hyperplasia, Minimal [1] | Gross Pathology: Enlarged Pancreatic Lymph Nodes [1] | Gross Pathology: Pale Adrenal [1] | Gross Pathology: Pale Ovaries [1] | Gross Pathology: Pale Pituitary [1] | Gross Pathology: Pale SQ Skin [1] | Liver Histiocytic Infiltration, Mild [1] | Liver Histiocytic Infiltration, Moderate [1] | Liver Vacuolation, Mild [1] | Lymph Node, Man. Histiocytic Infiltration, Mild [1] | Lymph Node, Man. Histiocytic Infiltration, Moderate [1] | Lymph Node, Mes. Histiocytic Infiltration, Moderate [1] | Ovary Histiocytic Infiltration [1] | Ovary Histiocytic Infiltration, Mild [1] | Ovary Histiocytic Infiltration, Minimal [1] | Ovary Histiocytic Infiltration, Moderate [1] | Skin, Dermis Histiocytic Infiltration [1] | Skin, Dermis Histiocytic Infiltration, Marked [1] | Skin, Dermis Histiocytic Infiltration, Mild [1] | Skin, Dermis Histiocytic Infiltration, Moderate [1] | Skin, SQ Histiocytic Infiltration [1] | Skin, SQ Histiocytic Infiltration, Mild [1] | Spleen Histiocytic Infiltration, Marked [1] | Spleen Histiocytic Infiltration, Moderate [1] | Adrenal Gland Vacuolation, Marked [2] | Adrenal Gland Vacuolation, Mild [2] | Adrenal Gland Vacuolation, Moderate [2] | Gross Pathology: Enlarged Spleen [2] | Gross Pathology: Pale Ovaries [2] | Liver Focal Necrosis [2] | Liver Focal Necrosis, Mild [2] | Liver Focal Necrosis, Minimal [2] | Liver Histiocytic Infiltration, Moderate [2] | Liver Multifocal Necrosis [2] | Liver Multifocal Necrosis, Mild [2] | Liver Multifocal Necrosis, Moderate [2] | Lymph Node, Man. Histiocytic Infiltration, Mild [2] | Lymph Node, Man. Histiocytic Infiltration, Moderate [2] | Lymph Node, Mes. Histiocytic Infiltration, Mild [2] | Ovary Histiocytic Infiltration, Mild [2] | Ovary Histiocytic Infiltration, Moderate [2] | Spleen Histiocytic Infiltration, Marked [2] | Spleen Histiocytic Infiltration, Moderate [2] | Died or Sacrificed Moribund (62.5 mg/kg M) | Bone Marrow, Sternum Hyperplasia [3] | Bone Marrow, Sternum Hyperplasia, Mild [3] | Bone Marrow, Sternum Hyperplasia, Minimal [3] | Gross Pathology: Enlarged Pancreatic Lymph Nodes [3] | Gross Pathology: Pale Adrenal [3] | Gross Pathology: Pale Lymph Nodes [3] | Gross Pathology: Pale Pituitary [3] | Liver Focal Necrosis [3] | Liver Focal Necrosis, Minimal [3] | Liver Histiocytic Infiltration, Moderate [3] | Liver Vacuolation, Mild [3] | Lymph Node, Mes. Histiocytic Infiltration, Moderate [3] | Skin, Dermis Histiocytic Infiltration [3] | Skin, Dermis Histiocytic Infiltration, Marked [3] | Skin, Dermis Histiocytic Infiltration, Mild [3] | Skin, Dermis Histiocytic Infiltration, Moderate [3] | Skin, SQ Histiocytic Infiltration [3] | Skin, SQ Histiocytic Infiltration, Mild [3] | Spleen Histiocytic Infiltration, Marked [3]
−4.0%: Food Consumption, percent difference from controls (62.5 mg/kg F, end of dosing)
4: Lymph Node, Man. Histiocytic Infiltration [1] | Lymph Node, Man. Histiocytic Infiltration, Minimal [1] | Spleen Histiocytic Infiltration [1] | Spleen Histiocytic Infiltration, Mild [1] | Lymph Node, Mes. Histiocytic Infiltration [2] | Lymph Node, Mes. Histiocytic Infiltration, Minimal [2] | Ovary Histiocytic Infiltration [2] | Ovary Histiocytic Infiltration, Minimal [2] | Lymph Node, Man. Histiocytic Infiltration, Minimal [3] | Lymph Node, Mes. Histiocytic Infiltration, Mild [3]
−0.5%: Body Weight, percent difference from controls (62.5 mg/kg M, end of dosing)
+0.5%: Spleen weight (absolute), percent difference from controls (62.5 mg/kg F, end of recovery)
0.09* 10^3/cmm: Eosinophils (62.5 mg/kg M, end of dosing)
−5.5%: Liver weight (absolute), percent difference from controls (62.5 mg/kg M, end of dosing)
7.02* 10^3/cmm: Lymphocytes (62.5 mg/kg M, end of dosing)
3: Adrenal Gland Vacuolation [2] | Adrenal Gland Vacuolation, Minimal [2] | Gross Pathology: Pale Liver [2] | Liver Histiocytic Infiltration, Minimal [2] | Spleen Histiocytic Infiltration [2]
7: Gross Pathology: Pale Liver [1] | Liver Histiocytic Infiltration [1] | Liver Histiocytic Infiltration, Minimal [1] | Liver Vacuolation [1] | Liver Vacuolation, Minimal [1] | Lymph Node, Mes. Histiocytic Infiltration, Minimal [1]
42.4* %: Hematocrit (62.5 mg/kg F, end of dosing)
22 IU/L: ALT (62.5 mg/kg M, end of dosing)
1.06 10^3/cmm: Neutrophils (62.5 mg/kg F, end of dosing) | Neutrophils (62.5 mg/kg M, end of dosing)
0.09 10^3/cmm: Eosinophils (62.5 mg/kg F, end of dosing)
−0.9%: Body Weight, percent difference from controls (62.5 mg/kg F, end of recovery)
14.7* g/dL: Hemoglobin (62.5 mg/kg F, end of dosing)
1: Gross Pathology: Pale Lymph Nodes [1] | Liver Focal Necrosis [1] | Liver Focal Necrosis, Minimal [1] | Gross Pathology: Pale Pancreatic Lymph Node [2] | Liver Vacuolation, Moderate [2] | Spleen Histiocytic Infiltration, Mild [2] | Gross Pathology: Pale SQ Skin [3] | Liver Histiocytic Infiltration, Mild [3] | Liver Histiocytic Infiltration, Minimal [3] | Lymph Node, Man. Histiocytic Infiltration, Mild [3] | Lymph Node, Man. Histiocytic Infiltration, Moderate [3] | Spleen Histiocytic Infiltration [3]
17.6 s: APPT (62.5 mg/kg M, end of dosing)
6: Lymph Node, Man. Histiocytic Infiltration [3]
67* IU/L: AST (62.5 mg/kg F, end of dosing)
+4.6%: Liver weight (absolute), percent difference from controls (62.5 mg/kg F, end of recovery)
7.77* 10^6/cmm: Erythrocytes (62.5 mg/kg F, end of dosing)
74 IU/L: AST (62.5 mg/kg M, end of dosing)
6.79 10^3/cmm: Lymphocytes (62.5 mg/kg F, end of dosing)
